Test results reported in the supplement of paper PMC10307832.

Compound: O=C(NCCCNc1nc(Nc2cccc(NC(=O)N3CCCC3)c2)ncc1I)c1cccs1 [BX 795]
Assay: relative viability (nuclei count vs DMSO), 5 days (fraction); higher = more cells survive
Outline: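 Lung cancer cell lines in 1536-well plates were kept overnight at 37 °C, then pinned with five library-drug doses (not always all listed) spaced by √10 on vehicle-anchored plates. After 5 days without medium change, cells were fixed, permeabilised and Hoechst-stained in one step, imaged at 4×, and nuclei were counted with MetaXpress. Viability is treated-well nuclei divided by vehicle-well nuclei, taken as the median over plates. Plates passed only with control CV below 25% and at least one doubling.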

Cell Line | relative viability (0.04 µM) | relative viability (0.1265 µM) | relative viability (0.4 µM) | relative viability (1.265 µM)
201T | 0.983 | 0.996 | 1.07 | 1.04
A549 | 1.01 | 1.08 | 0.97 | 0.671
A-427 | 1.08 | 0.905 | 0.998 | 0.808
ABC-1 | 0.888 | 0.797 | 0.917 | 0.906
BEN | 0.907 | 1.12 | 0.952 | 1.05
CAL-12T | 0.949 | 0.992 | 0.882 | 0.623
COR-L23 | 1.04 | 1.04 | 1.05 | 0.669
COR-L 105 | 0.985 | 0.868 | 0.776 | 0.661
ChaGo-K-1 | 0.947 | 1.06 | 0.959 | 0.981
EKVX | 0.934 | 0.975 | 0.883 | 0.93
EMC-BAC-2 | 0.978 | 0.843 | 0.951 | 0.633
EPLC-272H | 1.01 | 0.899 | 0.885 | 0.748
H3255 | 0.985 | 1.07 | 1.02 | 0.949
HARA | 0.921 | 0.81 | 0.975 | 0.947
HCC-15 | 0.967 | 1.05 | 0.973 | 0.804
HCC-44 | 0.908 | 0.967 | 1.07 | 1.06
HCC-78 | 1.1 | 1 | 1.01 | 0.933
HCC-366 | 1.02 | 1.02 | 0.944 | 0.945
HCC-827 | 1 | 1.02 | 1.04 | 1.01
HOP-62 | 0.963 | 1.06 | 1.21 | 1
IA-LM | 1.02 | 1.03 | 1.12 | 0.86
LC-2-ad | 1.04 | 0.924 | 0.912 | 0.661
LCLC-97TM1 | 1.11 | 1.02 | 1.1 | 0.716
LCLC-103H | 1.02 | 1.01 | 0.937 | 0.985
LK-2 | 0.998 | 1.02 | 0.863 | 0.929

Cell Line | relative viability (0.04 µM) | relative viability (0.1265 µM) | relative viability (0.4 µM) | relative viability (1.265 µM)
LOU-NH91 | 1.01 | 0.967 | 0.982 | 0.961
LU99A | 0.946 | 0.894 | 0.84 | 0.778
LXF-289 | 0.962 | 1 | 1.02 | 0.9
NCI-H23 | 1.07 | 0.952 | 0.896 | 0.769
NCI-H322M | 1.09 | 0.964 | 1.12 | 1.25
NCI-H358 | 0.955 | 0.905 | 0.76 | 0.513
NCI-H441 | 1.39 | 1.24 | 1.48 | 0.802
NCI-H460 | 0.995 | 1.08 | 0.991 | 0.954
NCI-H520 | 0.99 | 1.04 | 0.869 | 0.733
NCI-H596 | 1.05 | 1.04 | 1 | 0.933
NCI-H647 | 0.81 | 1.02 | 0.891 | 0.82
NCI-H650 | 0.933 | 1.02 | 0.954 | 0.805
NCI-H661 | 1.09 | 0.994 | 1.03 | 1.04
NCI-H727 | 1.01 | 0.899 | 0.978 | 1
NCI-H838 | 0.892 | 0.993 | 0.79 | 0.614
NCI-H1355 | 1.01 | 1.01 | 1.02 | 0.873
NCI-H1395 | 0.839 | 0.858 | 0.586 | 0.633
NCI-H1437 | 0.978 | 1.05 | 1.03 | 1.01
NCI-H1563 | 1.08 | 0.942 | 1.03 | 0.814
NCI-H1650 | 0.915 | 1.05 | 0.8 | 0.778
NCI-H1651 | 1.04 | 1.04 | 0.993 | 1
NCI-H1666 | 1.06 | 1.03 | 1.01 | 0.925
NCI-H1734 | 1.06 | 1.02 | 0.908 | 0.668
NCI-H1755 | 1.05 | 1.03 | 0.972 | 0.881
NCI-H1792 | 0.93 | 0.818 | 1.12 | 0.867

Cell Line | relative viability (0.04 µM) | relative viability (0.1265 µM) | relative viability (0.4 µM) | relative viability (1.265 µM)
NCI-H1793 | 1.09 | 0.917 | 1.05 | 0.808
NCI-H1915 | 1.03 | 0.974 | 0.955 | 0.903
NCI-H1944 | 1.06 | 0.996 | 1.16 | 0.958
NCI-H1975 | 0.977 | 1.07 | 0.858 | 0.806
NCI-H1993 | 1.05 | 0.983 | 0.926 | 0.893
NCI-H2009 | 0.981 | 0.976 | 0.996 | 0.782
NCI-H2023 | 0.906 | 0.904 | 0.571 | 0.6
NCI-H2085 | 1.01 | 1.03 | 0.981 | 0.97
NCI-H2087 | 1.07 | 1.14 | 1.15 | 0.941
NCI-H2126 | 1.01 | 1.02 | 1.1 | 0.983
NCI-H2170 | 0.955 | 0.951 | 0.958 | 0.942
NCI-H2228 | 1.07 | 1.21 | 1.04 | 0.871
NCI-H2347 | 1.14 | 1.01 | 1.28 | 0.935
NCI-H2405 | 1.06 | 0.963 | 0.988 | 0.89
NCI-H3122 | 0.981 | 1.01 | 1.04 | 1.06
PC-3 [JPC-3] | 1.07 | 0.979 | 1.04 | 1
PC-14 | 0.948 | 0.997 | 0.944 | 0.719
RERF-LC-KJ | 1.06 | 0.949 | 1.02 | 0.908
SK-LU-1 | 0.91 | 1.18 | 0.629 | 0.836
SK-MES-1 | 1.06 | 0.979 | 0.932 | 0.761
SW 900 | 0.856 | 0.759 | 1.04 | 0.813
SW 1573 | 0.918 | 0.984 | 1.1 | 0.651
UMC-11 | 0.896 | 0.995 | 0.802 | 0.675
